Experimental data published in ChEMBL document CHEMBL3997792, “Identification of the First Selective Activin Receptor-Like Kinase 1 Inhibitor, a Reversible Version of L-783277” (J Med Chem, 2017).
Active and inactive are the calls of the source. The rule behind the calls is not given here.

Key:
[1] = target: T1, Activin receptor type-1-like (Mus musculus) (UniProt Q61288); experiment: Inhibition of BMP9-stimulated ALK1 in mouse C2C12 cells assessed as reduction in Smad1/5 phosphorylation at 10 uM pretreated for 2 hrs followed by BMP9-stimulation after 30 mins by western blot analysis relative to control; type: cell-based
T1 sequence (whole entry): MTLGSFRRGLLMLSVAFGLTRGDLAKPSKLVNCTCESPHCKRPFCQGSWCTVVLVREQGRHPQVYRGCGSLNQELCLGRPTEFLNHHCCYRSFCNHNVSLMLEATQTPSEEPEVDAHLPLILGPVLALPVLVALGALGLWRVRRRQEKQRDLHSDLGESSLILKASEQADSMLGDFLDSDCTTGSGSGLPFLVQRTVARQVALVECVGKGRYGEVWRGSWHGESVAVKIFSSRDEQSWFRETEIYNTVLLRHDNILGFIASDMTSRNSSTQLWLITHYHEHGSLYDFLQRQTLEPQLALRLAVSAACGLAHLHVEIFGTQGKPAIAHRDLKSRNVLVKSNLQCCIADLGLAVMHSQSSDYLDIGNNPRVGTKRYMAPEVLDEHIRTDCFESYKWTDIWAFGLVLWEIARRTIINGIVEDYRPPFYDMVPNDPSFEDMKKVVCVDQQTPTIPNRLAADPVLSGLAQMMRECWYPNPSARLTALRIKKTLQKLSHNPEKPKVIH

[2] = target: Activin receptor type-1-like (Homo sapiens, UniProt P37023); experiment: Inhibition of human ALK1 using casein as substrate in presence of [gamma-33P]-ATP by scintillation counting method
Sequence of Activin receptor type-1-like (P37023 whole entry): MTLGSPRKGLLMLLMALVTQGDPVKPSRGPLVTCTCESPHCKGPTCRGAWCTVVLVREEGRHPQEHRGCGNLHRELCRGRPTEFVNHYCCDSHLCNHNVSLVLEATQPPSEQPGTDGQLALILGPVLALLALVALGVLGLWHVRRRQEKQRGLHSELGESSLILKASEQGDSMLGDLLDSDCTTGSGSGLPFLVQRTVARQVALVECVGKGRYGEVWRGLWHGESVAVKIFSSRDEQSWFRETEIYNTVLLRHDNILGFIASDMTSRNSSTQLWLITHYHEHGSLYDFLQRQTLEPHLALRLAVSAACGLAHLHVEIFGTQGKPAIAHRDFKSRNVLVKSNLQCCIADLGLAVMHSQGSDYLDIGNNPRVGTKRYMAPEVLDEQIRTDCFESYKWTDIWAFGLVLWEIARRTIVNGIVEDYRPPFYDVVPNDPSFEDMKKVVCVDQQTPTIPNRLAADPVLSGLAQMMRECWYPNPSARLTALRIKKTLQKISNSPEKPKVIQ

| inhibition [1] | IC50 [2] | Compound |
| --- | --- | --- |
| Active | 1.78 µM | COc1cc(O)c2c(c1)CCC[C@H](O)[C@H](O)[C@H](O)CCC[C@H](C)OC2=O |
| 70 to 80% | 0.77 µM | COc1cc(O)c2c(c1)CCC[C@H](O)[C@H](O)[C@@H](O)CCC[C@H](C)OC2=O |
